This is an account of results in patent publication US10131663B2, “Chemical compounds” (AstraZeneca AB, priority 2016, dated 2018).

In one series the target is ERα receptor (Homo sapiens (Human), UniProt P03372). As to conditions: 500 mg monthly dose; cited from earlier work.
Series [1] is described as follows: Human hepatocyte assay (metabolic stability). It counts as in vitro ADME. The conditions noted are these: human hepatocytes. The method, then: The metabolic stability of compounds in human hepatocytes was assessed using the following protocol: • 1. Prepare 10 mM stock solutions of compound and control compounds in appropriate solvent (DMSO). Place incubation medium (L-15 Medium) in a 37° C. water bath, and allow warming for at least 15 minutes prior to use. • 2. Add 80 μL of acetonitrile to each well of the 96-well deep well plate (quenching plate). • 3. In a new 96-well plate, dilute the 10 mM test compounds and the control compounds to 100 μM by combining 198 μL of acetonitrile and 2 μL of 10 mM stock. • 4. Remove a vial of cryopreserved (less than −150° C.) human hepatocytes (LiverPool™ 10 Donor Human hepatocytes obtained from Celsis IVT. Chicago, Ill. (Product No. S01205)) from storage, ensuring that vials remain at cryogenic temperatures until thawing process ensues. As quickly as possible, thaw the cells by placing the vial in a 37° C. water bath and gently shaking the vials. Vials should remain in water bath until all ice crystals have dissolved and are no longer visible. After thawing is complete, spray vial with 70% ethanol, transfer the vial to a bio-safety cabinet. • 5. Open the vial and pour the contents into the 50 mL conical tube containing thawing medium. Place the 50 mL conical tube into a centrifuge and spin at 100 g for 10 minutes. […] Using Cellometer® Vision, count cells and determine the viable cell density. Cells with poor viability (<80% viability) are not acceptable for use. […] Transfer 247.5 μL of hepatocytes into each well of a 96-well cell culture plate. Place the plate on Eppendorf Thermomixer Comfort plate shaker to allow the hepatocytes to warm for 10 minutes. • 8. Add 2.5 μL of 100 μM test compound or control compounds into an incubation well containing cells, mix to achieve a homogenous suspension at 0.5 min, which when achieved, will define the 0.5 min time point. At the 0.5 min time, transfer 20 μL of incubated mixture to wells in a “Quenching plate” followed by vortexing. • 9. Incubate the plate at 37° C. at 900 rpm on an Eppendorf Thermomixer Comfort plate shaker. […] Centrifuge the quenching plates for 20 minutes at 4,000 rpm. 4 different compounds are pooled into one cassette and used for LC/MS/MS analysis.
All calculations were carried out using Microsoft Excel. Peak areas were determined from extracted ion chromatograms. In vitro intrinsic clearance (in vitro Clint, in […]) of parent compound was determined by regression analysis of the Ln percent parent disappearance vs. time curve.
V=incubation volume (0.25 mL);
N=number of hepatocytes per well (0.25×10^6 cells).

Series [2] has as its target recombinant human Estrogen Receptor alpha ligand binding domain (ER alpha-LBD (GST)) (Homo sapiens (Human), UniProt P03372). Description: ERα binding assay (LanthaScreen TR-FRET competition). The conditions noted are these: TR-FRET, displacement of Fluormone ES2. The method in brief:
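Competition binding to GST-tagged human ERα ligand-binding domain, read by LanthaScreen TR-FRET: Tb-anti-GST antibody labels the receptor and compounds displace a fluorescent tracer, lowering the signal. IC50 was taken from dose-response curve fitting.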

The nature of series [3]: Human Caco-2 bidirectional permeability A to B and B to A. As to conditions: for Papp at 2 h: Caco-2, 2 hours, pH 7.4. It counts as in vitro ADME. The method, then: An automated assay was used to determine the bidirectional permeability (efflux and uptake) of compounds in Caco-2 cells carried out over 2 hours at pH 7.4.
The efflux ratio (ER) can be determined using the following equation: ER=Papp(B-A)/Papp(A-B) Where Papp (B-A) indicates the apparent permeability coefficient in basolateral to apical direction, and Papp (A-B) indicates the apparent permeability coefficient in apical to basolateral direction. Human Caco-2 Passive Permeability A to B Papp

Series [4] is described as follows: Human plasma protein binding (equilibrium dialysis). It counts as in vitro ADME. As to conditions: dialysis 18 hours. The method in brief: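 Fraction unbound (fu %) in human plasma, from LC/MSMS of plasma and buffer sides (7-point plasma calibration) after 18 h rapid equilibrium dialysis. Single determinations, with compounds pooled up to 10 per plasma pool.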

Series [5] in a line: Thermodynamic solubility (shake-flask). It counts as physicochemical. The conditions noted are these: aqueous phosphate buffer, 25 °C, pH 7.4, aqueous buffer, thermodynamic from solid, aqueous phosphate buffer pH 7.4, 24 hours. The essentials: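 Shake-flask method starting from 10 mM DMSO stocks, which are dried before use. Residue equilibrated 24 h at 25° C. in aqueous phosphate buffer, pH 7.4. Dissolved fraction separated and quantified by UPLC/MS/MS, with QC samples in each run.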

Series [6] addresses Estrogen Receptor (ERα) in MCF-7 cells (Homo sapiens (Human), UniProt P03372). Description: MCF-7 ER down-regulation assay (immuno-fluorescence). It counts as cell-based. The method in brief:
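Compounds dispensed acoustically from DMSO stocks onto MCF-7 cells; cells fixed 20 min at room temperature, then automated immunostaining for ERα with overnight incubation at 4° C. Read-out is mean total ER fluorescence intensity normalized to cell number (intensity per cell), with curve fitting for concentration-response values.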

A short description of series [7]: log D (shake flask, 1-octanol/aqueous buffer). It counts as physicochemical. The essentials:
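Distribution between 1-octanol and aqueous buffer at pH 7.4 was measured by shake flask, with compounds run in mixtures of ten. Relative concentrations in each phase were quantified by UPLC with quantitative MS. Caffeine served as a low-log D QC sample in all runs.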

A short description of series [8]: Human Caco-2 passive permeability A to B Papp. The format is in vitro ADME. As to conditions: apical pH 6.5, basolateral pH 7.4, efflux inhibitor cocktail. The method, then: An automated assay was used to determine the passive permeability of compounds in Caco-2 cell monolayers carried out over 2 hours with an apical pH of 6.5 and basolateral pH of 7.4. The Caco-2 AB inhibition assay is carried out with chemical inhibition of the three major efflux transporters ABCB1 (P-gp), ABCG2 (BCRP) and ABCC2 (MRP2) in Caco-2 cells. Incubation of both apical and basolateral is carried out with a cocktail of inhibitors (50 μM quinidine, 20 μM sulfasalazine and 100 μM benzbromarone). Samples were analyzed through LC/MS/MS to estimate the apparent permeability coefficients (Papp) of compounds across Caco-2 cell monolayers and results are quoted in units of ×10^−6 cm/s.

pIC50: −log10 of the molar value. In brackets after ≈: the same amount, converted by molar mass.

Sequence of Estrogen Receptor (ERα) in MCF-7 cells (P03372 whole entry): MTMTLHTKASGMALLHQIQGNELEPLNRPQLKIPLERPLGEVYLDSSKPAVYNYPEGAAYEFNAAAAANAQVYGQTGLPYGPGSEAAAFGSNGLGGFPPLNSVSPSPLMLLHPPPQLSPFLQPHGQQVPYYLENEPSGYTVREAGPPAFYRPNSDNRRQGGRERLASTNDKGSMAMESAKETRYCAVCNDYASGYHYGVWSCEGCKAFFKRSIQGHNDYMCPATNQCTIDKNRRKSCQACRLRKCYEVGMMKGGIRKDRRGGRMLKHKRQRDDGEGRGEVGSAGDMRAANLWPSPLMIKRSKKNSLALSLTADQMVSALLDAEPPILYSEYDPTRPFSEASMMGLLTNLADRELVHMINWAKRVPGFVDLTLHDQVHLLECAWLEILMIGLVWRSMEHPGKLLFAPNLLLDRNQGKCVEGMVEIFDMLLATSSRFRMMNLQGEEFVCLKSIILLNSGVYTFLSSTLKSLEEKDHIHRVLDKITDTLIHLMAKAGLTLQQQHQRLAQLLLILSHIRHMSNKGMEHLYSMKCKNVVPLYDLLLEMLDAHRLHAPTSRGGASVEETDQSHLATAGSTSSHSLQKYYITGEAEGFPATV
Sequence of ERα receptor (P03372 whole entry): as above
Sequence of recombinant human Estrogen Receptor alpha ligand binding domain (ER alpha-LBD (GST)) (P03372 307-554): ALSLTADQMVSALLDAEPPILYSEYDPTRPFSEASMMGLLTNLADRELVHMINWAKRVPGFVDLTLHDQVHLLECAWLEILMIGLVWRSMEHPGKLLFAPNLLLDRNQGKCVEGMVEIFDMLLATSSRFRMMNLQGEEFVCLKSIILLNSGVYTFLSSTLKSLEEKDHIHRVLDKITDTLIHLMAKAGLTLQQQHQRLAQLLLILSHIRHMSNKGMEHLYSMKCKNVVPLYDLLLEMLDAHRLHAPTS

With `C[C@]12CC[C@@H]3c4ccc(O)cc4C[C@@H](CCCCCCCCC[S+]([O-])CCCC(F)(F)C(F)(F)F)[C@H]3[C@@H]1CC[C@@H]2O` (some centres unmarked) [Fulvestrant, fulvestrant], the “turnover of the receptor in patient samples” value on ERα receptor was “less than 50%”.

On to `C[C@@H]1Cc2c(ccc3[nH]ncc23)[C@@H](c2c(F)cc(NC3CN(CCCF)C3)cc2F)N1CC1(F)CC1` [Example 11, N-(3,5-difluoro-4-((6S,8R)-7-((1-fluorocyclopropyl)methyl)-8-methyl-6,7,8,9-tetrahydro-3H-pyrazolo[4,3-f]isoquinolin-6-yl)phenyl)-1-(3-fluoropropyl)azetidin-3-amine], for which, in series [1], the hepatocyte CLint at 1 µM amounted to 7 µL/min/1e6 cells. Moreover, the pIC50 in series [2] was 7.70; in [6] it was 10.03. In addition, the Papp at 2 h in series [3] worked out at 1.6 ×10⁻⁶ cm/s. Also, the efflux ratio at 2 h in series [3] (Caco-2, pH 7.4) was determined as 1.4. The “Human plasma protein binding (% free)” value in series [4] worked out at 2 % free. The solubility at 24 h in series [5] worked out at 186 µM (≈ 93.3 µg/mL). This molecule returned a logD in series [7] (1-octanol/aqueous buffer, pH 7.4, pH 7.4, 1-octanol/aqueous buffer) of 3.9.

As to `C[C@@H]1Cc2c(ccc3[nH]ncc23)[C@@H](c2ccc(NC3CN(CCCF)C3)c(F)n2)N1CC(F)(F)F` [Example 29, 2-fluoro-N-(1-(3-fluoropropyl)azetidin-3-yl)-6-((6S,8R)-8-methyl-7-(2,2,2-trifluoroethyl)-6,7,8,9-tetrahydro-3H-pyrazolo[4,3-f]isoquinolin-6-yl)pyridin-3-amine], the results for the Papp at 2 h in series [3] and in series [8] were 12 ×10⁻⁶ cm/s and 24 ×10⁻⁶ cm/s, respectively. Further, the “Human plasma protein binding (% free)” value in [4] was determined as 16 % free. The same molecule returned a solubility at 24 h in series [5] of 779 µM (≈ 385 µg/mL). Besides, the logD in [7] (pH 7.4, 1-octanol/aqueous buffer) amounted to 3.
